# Reference: patent publication US12077503B2, “Substituted cyclic amides and their use as herbicides” (FMC CORPORATION, priority 2015, dated 2024)
# Columns and labels:
# Assay type in all cases: in vivo
# [1] = tested on: ryegrass, Italian (Italian ryegrass, Lolium multiflorum); test: Test A preemergence; details: Lolium multiflorum, pre-emergence, 240 h, 0 to 100 scale where 0 is no effect and 100 is complete control, read-out: Ryegrass, Italian plant response rating
# Method in brief: (§1)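 Greenhouse, ~10 d after spray; visual injury vs untreated controls, 0 = no effect, 100 = complete control. Preemergence: directed soil spray over planted seeds. Postemergence: plants 2–10 cm, 1–2 leaf stage. Loam/sand blend. Compound in non-phytotoxic solvent with surfactant.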
# [2] = tested on: Kochia (Kochia scoparia); test: Test A preemergence; details: Bassia scoparia, pre-emergence, 240 h, 0 to 100 scale where 0 is no effect and 100 is complete control, read-out: Kochia plant response rating
# Method in brief: as §1
# [3] = tested on: ragweed (common ragweed, Ambrosia elatior); test: Test A preemergence; details: Ambrosia artemisiifolia, pre-emergence, 240 h, 0 to 100 scale where 0 is no effect and 100 is complete control, read-out: Ragweed plant response rating
# Method in brief: as §1
# [4] = tested on: giant foxtail (Setaria faberii); test: Test A preemergence; details: Setaria faberi, pre-emergence, 240 h, 0 to 100 scale where 0 is no effect and 100 is complete control, read-out: Foxtail, Giant plant response rating
# Method in brief: as §1
# [5] = tested on: barnyardgrass (Echinochloa crus-galli); test: Test A preemergence; details: Echinochloa crus-galli, pre-emergence, 240 h, 0 to 100 scale where 0 is no effect and 100 is complete control, read-out: Barnyardgrass plant response rating
# Method in brief: as §1
# [6] = tested on: pigweed (Amaranthus retroflexus); test: Test A preemergence; details: Amaranthus retroflexus, pre-emergence, 240 h, 0 to 100 scale where 0 is no effect and 100 is complete control, read-out: Pigweed plant response rating
# [7] = tested on: wheat (Triticum aestivum); test: Test A postemergence; details: Triticum aestivum, post-emergence, 240 h, 125 g ai/ha, postemergence, visual injury vs untreated controls after approx. 10 d; 0 = no effect, 100 = complete control; read-out: Wheat plant response rating (0 to 100 scale)
# Method in brief: as §1
# [8] = tested on: ryegrass, Italian (Italian ryegrass, Lolium multiflorum); test: Test A postemergence; details: Lolium multiflorum, post-emergence, 240 h, 125 g ai/ha, postemergence, visual injury vs untreated controls after approx. 10 d; 0 = no effect, 100 = complete control; read-out: Ryegrass, Italian plant response rating (0 to 100 scale)
# Method in brief: as §1
# [9] = tested on: Galium (catchweed bedstraw, Galium aparine); test: Test A postemergence; details: Galium, post-emergence, 240 h
# Method in brief: as §1
# [10] = tested on: Kochia (Kochia scoparia); test: Test A postemergence; details: Bassia scoparia, post-emergence, 240 h
# Method in brief: as §1
# [11] = tested on: ragweed (common ragweed, Ambrosia elatior); test: Test A postemergence; details: Ambrosia artemisiifolia, post-emergence, 240 h, 125 g ai/ha, postemergence, visual injury vs untreated controls after approx. 10 d; 0 = no effect, 100 = complete control; read-out: Ragweed plant response rating (0 to 100 scale)
# Method in brief: as §1
# [12] = tested on: giant foxtail (Setaria faberii); test: Test A postemergence; details: Setaria faberi, post-emergence, 240 h
# Method in brief: as §1
# [13] = tested on: barnyardgrass (Echinochloa crus-galli); test: Test A postemergence; details: Echinochloa crus-galli, post-emergence, 240 h
# Method in brief: as §1
# [14] = tested on: blackgrass (Alopecurus myosuroides); test: Test A postemergence; details: Alopecurus myosuroides, post-emergence, 240 h
# Method in brief: as §1
# [15] = tested on: corn (Zea mays); test: Test A postemergence; details: Zea mays, post-emergence, 240 h
# Method in brief: as §1
# [16] = tested on: pigweed (Amaranthus retroflexus); test: Test A postemergence; details: Amaranthus retroflexus, post-emergence, 240 h, 125 g ai/ha, postemergence, visual injury vs untreated controls after approx. 10 d; 0 = no effect, 100 = complete control; read-out: Pigweed plant response rating (0 to 100 scale)
# Method in brief: as §1
# [17] = tested on: rice (Oryra sativa); test: Test B flooded paddy test; details: Oryza sativa, 250 g ai/ha, Flood; 0 to 100 scale where 0 is no effect and 100 is complete control; read-out: Rice plant response rating
# Method in brief: (§2)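 Evaluation by eye, against controls, occurred 13–15 d post-treatment in a greenhouse, using a 0 (no effect) to 100 (complete control) scale. Application was into the paddy water, 3 cm deep over the soil, on 2-leaf plants.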
# [18] = tested on: ducksalad (Heteranthera limosa); test: Test B flooded paddy test; details: Heteranthera limosa, 250 g ai/ha, Flood; 0 to 100 scale where 0 is no effect and 100 is complete control; read-out: Ducksalad plant response rating
# Method in brief: as §2
# [19] = tested on: barnyardgrass (Echinochloa crus-galli); test: Test B flooded paddy test; details: Echinochloa crus-galli, 250 g ai/ha, Flood; 0 to 100 scale where 0 is no effect and 100 is complete control; read-out: Barnyardgrass plant response rating
# Method in brief: as §2
# [20] = tested on: sedge, umbrella (small-flower umbrella sedge, Cyperus difformis); test: Test B flooded paddy test; details: Cyperus difformis, 250 g ai/ha, Flood; 0 to 100 scale where 0 is no effect and 100 is complete control; read-out: Sedge, Umbrella plant response rating
# Method in brief: as §2
# [21] = 125 g ai/ha, preemergence, approx. 10 d
structure (smiles),measurement,setting,value
CN1C[C@H](c2ccc([Si](C)(C)C)cc2)[C@@H](C(=O)Nc2cccc(F)c2F)C1=O [Compound 1168],pest or weed control at 31 g/ha,"[1]; 31 g ai/ha, Preemergence",0%
same,pest or weed control at 125 g/ha,[1]; [21],0%
same,pest or weed control at 31 g/ha,"[2]; 31 g ai/ha, Preemergence",0%
same,pest or weed control at 125 g/ha,[2]; [21],0%
same,pest or weed control at 31 g/ha,"[3]; 31 g ai/ha, Preemergence",0%
same,pest or weed control at 125 g/ha,[3]; [21],0%
same,pest or weed control at 31 g/ha,"[4]; 31 g ai/ha, Preemergence",0%
same,pest or weed control at 125 g/ha,[4]; [21],30%
same,pest or weed control at 31 g/ha,"[5]; 31 g ai/ha, Preemergence",0%
same,pest or weed control at 125 g/ha,[5]; [21],0%
same,pest or weed control at 31 g/ha,"[6]; 31 g ai/ha, Preemergence",0%
same,pest or weed control at 125 g/ha,[6]; [21],0%
same,plant injury at 125 g/ha,[7],20%
same,pest or weed control at 125 g/ha,[8],0%
same,pest or weed control at 125 g/ha,"[9]; 125 g ai/ha, postemergence, visual injury vs untreated controls after approx. 10 d, 0 = no effect, 100 = complete control, read-out: Galium plant response rating (0 to 100 scale)",30%
same,pest or weed control at 31 g/ha,"[9]; Postemergence, 31 g ai/ha, visual injury after approx. 10 d, 0 to 100 scale, 0 no effect, 100 complete control, read-out: Plant response rating, Galium",0%
same,pest or weed control at 125 g/ha,"[10]; 125 g ai/ha, postemergence, visual injury vs untreated controls after approx. 10 d, 0 = no effect, 100 = complete control, read-out: Kochia plant response rating (0 to 100 scale)",0%
same,pest or weed control at 31 g/ha,"[10]; Postemergence, 31 g ai/ha, visual injury after approx. 10 d, 0 to 100 scale, 0 no effect, 100 complete control, read-out: Plant response rating, Kochia",0%
same,pest or weed control at 125 g/ha,[11],0%
same,pest or weed control at 125 g/ha,"[12]; 125 g ai/ha, postemergence, visual injury vs untreated controls after approx. 10 d, 0 = no effect, 100 = complete control, read-out: Foxtail, Giant plant response rating (0 to 100 scale)",20%
same,pest or weed control at 31 g/ha,"[12]; Postemergence, 31 g ai/ha, visual injury after approx. 10 d, 0 to 100 scale, 0 no effect, 100 complete control, read-out: Plant response rating, Foxtail, Giant",0%
same,pest or weed control at 125 g/ha,"[13]; 125 g ai/ha, postemergence, visual injury vs untreated controls after approx. 10 d, 0 = no effect, 100 = complete control, read-out: Barnyardgrass plant response rating (0 to 100 scale)",0%
same,pest or weed control at 31 g/ha,"[13]; Postemergence, 31 g ai/ha, visual injury after approx. 10 d, 0 to 100 scale, 0 no effect, 100 complete control, read-out: Plant response rating, Barnyardgrass",0%
same,pest or weed control at 125 g/ha,"[14]; 125 g ai/ha, postemergence, visual injury vs untreated controls after approx. 10 d, 0 = no effect, 100 = complete control, read-out: Blackgrass plant response rating (0 to 100 scale)",0%
same,pest or weed control at 31 g/ha,"[14]; Postemergence, 31 g ai/ha, visual injury after approx. 10 d, 0 to 100 scale, 0 no effect, 100 complete control, read-out: Plant response rating, Blackgrass",0%
same,plant injury at 125 g/ha,"[15]; 125 g ai/ha, postemergence, visual injury vs untreated controls after approx. 10 d, 0 = no effect, 100 = complete control, read-out: Corn plant response rating (0 to 100 scale)",0%
same,"Corn plant response rating (crop injury, 0 = no effect, 100 = complete kill) at 31 g/ha","[15]; Postemergence, 31 g ai/ha, visual injury after approx. 10 d, 0 to 100 scale, 0 no effect, 100 complete control",0%
same,pest or weed control at 125 g/ha,[16],0%
same,pest or weed control at 250 g/ha,[17],30%
same,pest or weed control at 250 g/ha,[18],0%
same,pest or weed control at 250 g/ha,[19],40%
same,pest or weed control at 250 g/ha,[20],0%
